In ChEMBL document CHEMBL5360560, “Anti-Vibrio potential of natural products from marine microorganisms” (Eur J Med Chem, 2023):
≈ marks a conversion by molar mass, not a printed value.

Experiments:
Vibrio natriegens = test: Antimicrobial activity against Vibrio natriegens assessed as bacterial growth inhibition; type: functional
Vibrio harveyi [1] = test: Antimicrobial activity against Vibrio harveyi assessed as bacterial growth inhibition; type: functional
Vibrio proteolyticus = test: Antimicrobial activity against Vibrio proteolyticus assessed as bacterial growth inhibition; type: functional
Vibrio alginolyticus [2] = test: Antimicrobial activity against Vibrio alginolyticus assessed as bacterial growth inhibition by microplate reader assay; type: functional
Vibrio parahaemolyticus [3] = test: Antimicrobial activity against Vibrio parahaemolyticus ATCC 17802 assessed as bacterial growth inhibition by microplate reader assay; type: functional
Vibrio mediterranei = test: Antimicrobial activity against Vibrio mediterranei assessed as bacterial growth inhibition; type: functional
Vibrio brasiliensis = test: Antimicrobial activity against Vibrio brasiliensis assessed as bacterial growth inhibition; type: functional
Vibrio parahaemolyticus [4] = test: Antibacterial activity against Vibrio parahaemolyticus assessed as bacterial growth inhibition by broth microdilution; type: functional
Vibrio vulnificus [5] = test: Antimicrobial activity against Vibrio vulnificus MISR 20716 assessed as bacterial growth inhibition measured after 24 hrs by broth microdilution assay; type: functional
Vibrio alginolyticus [6] = test: Antimicrobial activity against Vibrio alginolyticus MISR 30816 assessed as bacterial growth inhibition measured after 24 hrs by broth microdilution assay; type: functional
Vibrio parahaemolyticus [7] = test: Antimicrobial activity against Vibrio parahaemolyticus MISR 21116 assessed as bacterial growth inhibition measured after 24 hrs by broth microdilution assay; type: functional
Vibrio alginolyticus [8] = test: Antimicrobial activity against Vibrio alginolyticus assessed as bacterial growth inhibition; type: functional
Vibrio harveyi [9] = test: Antimicrobial activity against Vibrio harveyi assessed as bacterial growth inhibition by two fold dilution assay; type: functional
Vibrio parahaemolyticus [10] = test: Bactericidal activity against Vibrio parahaemolyticus ATCC 17802 assessed as bacterial growth inhibition mesured after 48 hrs by broth dilution assay; type: functional
Vibrio parahaemolyticus [11] = test: Antimicrobial activity against Vibrio parahaemolyticus ATCC 17802 assessed as bacterial growth inhibition mesured after 48 hrs by broth dilution assay; type: functional
Vibrio alginolyticus [12] = test: Antimicrobial activity against Vibrio alginolyticus QDIO-7 assessed as bacterial growth inhibition by microtiter plate reader analysis; type: functional
Vibrio vulnificus [13] = test: Antimicrobial activity against Vibrio vulnificus QDIO-4 assessed as bacterial growth inhibition by microtiter plate reader analysis; type: functional
Vibrio anguillarum [14] = test: Antimicrobial activity against Vibrio anguillarum assessed as bacterial growth inhibition by well diffusion method; type: functional
Vibrio sp. = test: Antibacterial activity against Vibrio sp. assessed as bacterial growth inhibition by GC-MS analysis; type: functional
Vibrio parahaemolyticus [15] = test: Antimicrobial activity against Vibrio parahaemolyticus assessed as zone of inhibition in diameter per disk at 50 ug; type: functional; details: read-out: IZ
Vibrio harveyi [16] = test: Antimicrobial activity against Vibrio harveyi assessed as zone of inhibition in diameter per disk at 50 ug; type: functional; details: read-out: IZ
Vibrio anguillarum [17] = test: Antimicrobial activity against Vibrio anguillarum assessed as zone of inhibition in diameter per disk at 50 ug; type: functional; details: read-out: IZ
Vibrio splendidus [18] = test: Antimicrobial activity against Vibrio splendidus assessed as zone of inhibition in diameter per disk at 50 ug; type: functional; details: read-out: IZ
Vibrio parahaemolyticus [19] = test: Antimicrobial activity against Vibrio parahaemolyticus assessed as zone of inhibition; type: functional
Vibrio anguillarum [20] = test: Antimicrobial activity against Vibrio anguillarum assessed as zone of inhibition; type: functional
Vibrio splendidus [21] = test: Antimicrobial activity against Vibrio splendidus assessed as zone of inhibition; type: functional
Vibrio harveyi [22] = test: Antimicrobial activity against Vibrio harveyi assessed as zone of inhibition; type: functional
Vibrio parahaemolyticus [23] = test: Antibacterial activity against Vibrio parahaemolyticus assessed as bacterial growth inhibition by agar dilution method; type: functional
Vibrio parahaemolyticus [24] = test: Antimicrobial activity against Vibrio parahaemolyticus QDIO-10 assessed as bacterial growth inhibition; type: functional
Vibrio harveyi [25] = test: Antimicrobial activity against Vibrio harveyi QDIO-9 assessed as bacterial growth inhibition; type: functional
Vibrio harveyi [26] = test: Antimicrobial activity against Vibrio harveyi QDIO-9 assessed as bacterial growth inhibition measured after 24 hrs by microtitre plate reader assay; type: functional
Vibrio anguillarum [27] = test: Antimicrobial activity against Vibrio anguillarum QDIO-8 assessed as bacterial growth inhibition measured after 24 hrs by microtitre plate reader assay; type: functional
Vibrio parahaemolyticus [28] = test: Antimicrobial activity against Vibrio parahaemolyticus QDIO-10 assessed as bacterial growth inhibition measured after 24 hrs by microtitre plate reader assay; type: functional
Vibrio ichthyoenteri = test: Antimicrobial activity against Vibrio ichthyoenteri assessed as bacterial growth inhibition; type: functional
Vibrio anguillarum [29] = test: Antimicrobial activity against Vibrio anguillarum assessed as zone of inhibition per disk at 100 ug; type: functional; details: read-out: IZ
Vibrio parahaemolyticus [30] = test: Antibacterial activity against Vibrio parahaemolyticus assessed as zone of inhibition measured after 24 to 48 hrs by agar well diffusion assay; type: functional; details: time 24-48 hrs
Vibrio alginolyticus [31] = test: Antibacterial activity against Vibrio alginolyticus assessed as zone of inhibition measured after 24 to 48 hrs by agar well diffusion assay; type: functional; details: time 24-48 hrs
Vibrio cholerae = test: Antibacterial activity against Vibrio cholerae assessed as zone of inhibition measured after 24 to 48 hrs by agar well diffusion assay; type: functional; details: time 24-48 hrs
Vibrio rotiferianus = test: Antibacterial activity against Vibrio rotiferianus MCCC E385 assessed as cell growth inhibition measured after 24 hrs by resazurin dye based assay; type: functional
Vibrio campbellii = test: Antibacterial activity against Vibrio campbellii MCCC E333 assessed as cell growth inhibition measured after 24 hrs by resazurin dye based assay; type: functional
Vibrio vulnificus [32] = test: Antibacterial activity against Vibrio vulnificus MCCC E1758 assessed as cell growth inhibition measured after 24 hrs by resazurin dye based assay; type: functional
Vibrio harveyi [33] = test: Antimicrobial activity against Vibrio harveyi BB120 assessed as bacterial growth reduction by bioluminescence based Quorum-Sensing assay; type: functional, organism-based

SMILES: C=CC(C)(C)C1(CC2NC(=O)c3ccccc3N(C)C2=O)C(=O)N(O)c2ccccc21 (stereo not given)
- MIC (Vibrio natriegens): 1 µg/mL (≈ 2.38 µM)
- MIC (Vibrio harveyi [1]): 1 µg/mL (≈ 2.38 µM)
- MIC (Vibrio proteolyticus): 0.1 µg/mL (≈ 0.238 µM)

SMILES: COc1c(Cl)c(C)c(Cl)c2c1[C@H]1c3c(O)c(C)cc(O)c3C[C@H]1C(C)(C)O2 (racemic)
- MIC (Vibrio alginolyticus [2]): 10 µM
- MIC (Vibrio parahaemolyticus [3]): 10 µM

SMILES: CC(C)[C@@H](C)/C=C/[C@@H](C)[C@H]1CC[C@@H]2[C@]1(C)CCC1[C@@]23OO[C@]2(C=C3O)C[C@@H](O)CC[C@]12C (stereo not given in full)
- MIC (Vibrio mediterranei): 8 µg/mL (≈ 18 µM)
- MIC (Vibrio brasiliensis): 32 µg/mL (≈ 72 µM)

SMILES: COC(=O)[C@@H](C)CCc1cc(O)c(C)cc1O
- MIC (Vibrio parahaemolyticus [4]): 12.5 µg/mL (≈ 52.5 µM)

SMILES: C[C@@H]1CCC/C=C/[C@H](O)C[C@@H](O)C/C=C\C=C\[C@@H](O)C/C=C/C=C\C(=O)O1
- MIC (Vibrio vulnificus [5]): 64 µg/mL (≈ 170 µM)
- MIC (Vibrio alginolyticus [6]): 64 µg/mL (≈ 170 µM)
- MIC (Vibrio parahaemolyticus [7]): 64 µg/mL (≈ 170 µM)

SMILES: C[C@]12CC[C@H](O)[C@](C)(CO)[C@@H]1CC[C@]1(C)[C@@H]2C[C@@H](O)[C@@H]2[C@@]3(C)CC[C@H]([C@](C)(O)CO)[C@@H]3CC[C@]21C
- MIC (Vibrio alginolyticus [8]): 16 µg/mL (≈ 32.5 µM)

SMILES: COC(=O)C1=CC(=O)C=C(OC)C12Oc1cc(C)cc(OC)c1C2=O (stereo not given) [TRYPACIDIN]
- MIC (Vibrio harveyi [9]): 31.2 µg/mL (≈ 90.6 µM)

SMILES: COc1ccc(Oc2cc(C)cc(O)c2)c(O[C@@H]2O[C@H](CO)[C@H](O)[C@H](O)[C@H]2O)c1
- MBC (Vibrio parahaemolyticus [10]): 2.5 µM (≈ 1.02 µg/mL)
- MIC (Vibrio parahaemolyticus [11]): 0.625 µM (≈ 0.255 µg/mL)

SMILES: CC(=O)OC/C=C\c1ccc(O)cc1CO
- MIC (Vibrio alginolyticus [12]): 8 µg/mL
- MIC (Vibrio vulnificus [13]): 8 µg/mL

SMILES: C=C(C)[C@H]1O[C@H]2CC[C@@]3(C)[C@@](O)(CC[C@@]4(O)[C@@H]5OC(C)(C)[C@H]6C[C@@H]7C(=C)Cc8c(Cl)cc9[nH]c(c5c9c8[C@@]76O)[C@]34C)[C@]23O[C@@H]3[C@H]1O
- MIC (Vibrio anguillarum [14]): 16 µg/mL (≈ 24.6 µM)

SMILES: COc1c(Cl)c(C)c(Cl)c2c1[C@H]1c3c(O)c(C)cc(O)c3C[C@@H]1C(C)(C)O2 (racemic)
- MIC (Vibrio alginolyticus [2]): 20 µM
- MIC (Vibrio parahaemolyticus [3]): 20 µM

SMILES: O=C1CCC2(CCC(=O)N2)N1
- MIC (Vibrio sp.): ≤ 0.78 µg/mL

SMILES: Cc1cc(O)cc(O)c1-c1cc2cc(O)cc(O)c2c(=O)o1
- zone of inhibition at 50 µg/disc (Vibrio parahaemolyticus [15]): 7 mm
- zone of inhibition at 50 µg/disc (Vibrio harveyi [16]): 7 mm
- zone of inhibition at 50 µg/disc (Vibrio anguillarum [17]): 7 mm
- zone of inhibition at 50 µg/disc (Vibrio splendidus [18]): 7 mm

SMILES: CC(=O)CCC[C@H](C)[C@@H]1C=C[C@@](C)(O[C@H]2O[C@H](CO)[C@@H](O)[C@H](O)[C@H]2NC(C)=O)CC1
- inhibition zone (IZ) (Vibrio parahaemolyticus [19]): 6.1 mm
- MIC (Vibrio anguillarum [20]): 6.1 µg/mL (≈ 14.3 µM)
- MIC (Vibrio splendidus [21]): 6.1 µg/mL (≈ 14.3 µM)
- MIC (Vibrio harveyi [22]): 6.1 µg/mL (≈ 14.3 µM)

SMILES: COC(=O)[C@@H]1CCCN1C(=O)c1cc2c([nH]c3cc(OC)ccc32)c(C=C(C)C)n1
- MIC (Vibrio alginolyticus [8]): 32 µg/mL (≈ 78.5 µM)

SMILES: COC(=O)/C=C/C=C/C(=O)N[C@H]1CCCNC(=O)[C@H](C)N(C)C(=O)[C@H](C(C)C)N(C)C1=O
- MIC (Vibrio parahaemolyticus [23]): 6.25 µM (≈ 2.82 µg/mL)

SMILES: C=C[C@@]1(C)CCC2=C(C(=O)C=C3C(C)(C)CCC[C@]32O)[C@@H]1O
- MIC (Vibrio parahaemolyticus [24]): 8 µg/mL (≈ 26.5 µM)
- MIC (Vibrio harveyi [25]): 8 µg/mL (≈ 26.5 µM)

SMILES: CO[C@](C)(CCCC(C)(C)O)c1ccc(C(=O)O)cc1O
- MIC (Vibrio harveyi [26]): 4 µg/mL (≈ 13.5 µM)
- MIC (Vibrio anguillarum [27]): 4 µg/mL (≈ 13.5 µM)
- MIC (Vibrio parahaemolyticus [28]): 4 µg/mL (≈ 13.5 µM)

SMILES: Cc1cc(O)cc(Oc2cc(C)cc(O)c2)c1 [DIORCINOL]
- MIC (Vibrio ichthyoenteri): 40 µg/mL (≈ 174 µM)

SMILES: COc1cc(O)c2c(=O)oc3cc(O)cc(C)c3c2c1
- zone of inhibition at 100 µg/disc (Vibrio anguillarum [29]): 9 mm

SMILES: CCCCCCCCCCCCC(=O)NCCC(C)C
- inhibition zone (IZ) (Vibrio parahaemolyticus [30]): 9.66 mm
- inhibition zone (IZ) (Vibrio alginolyticus [31]): 16.3 mm
- inhibition zone (IZ) (Vibrio cholerae): 13.7 mm

SMILES: COc1cc2oc3c(OC)c(-c4ccc(O)c(CC=C(C)C)c4)cc(OC)c3c2cc1O
- MIC (Vibrio rotiferianus): 7.75 µg/mL (≈ 17.8 µM)
- MIC (Vibrio campbellii): 15.6 µg/mL (≈ 35.9 µM)
- MIC (Vibrio vulnificus [32]): 7.77 µg/mL (≈ 17.9 µM)

SMILES: CC(C)CC(=O)NCCc1ccccc1
- EC50 (Vibrio harveyi [33]): 9 µg/mL (≈ 43.8 µM)
